One test has as its system Raw 264.7 cells. The experiment in a line: LN (Laminin 421)-induced immune cell migration, Transwell. In kind it is cell-based. The settings on record: Mus musculus, RAW264.7; 3 µM compound, LN (Laminin 421 1 µg/ml), 24 hours, % inhibition compared to control group; read-out: Migration inhibitor % (3uM). As to the method:
Cell migration was assessed based on the method described in the prior literature (Park, S. G. et al. Human lysyl-tRNA synthetase is secreted to trigger proinflammatory response. Proceedings of the National Academy of Sciences, 2005, 102.18: 6356-6361.). The specific experimental method is as follows. A Transwell (Corning#3421-5µm pore) was coated with gelatin (0.5mg/ml), and then Raw 264.7 cells (1 x 10^5 cells/well) were seeded in the upper chamber. Serum-free medium (Serum Free DMEM, 500 µl) containing LN (Laminin 421 1 µg/ml) was added to the lower chamber. Each compound was treated at a concentration of 3µM in the upper chamber. After 24 hours, the cells were fixed with 70% methanol for 30 minutes and stained with 50% hematoxylin for 30 minutes. Non-migrating cells on the upper side of the membrane were removed with a cotton swab, and the membrane was mounted on a slide. Migrating cells on the lower side of the membrane were observed under a high-power microscope, and the number of cells was measured from the obtained images and expressed as the inhibition rate (% inhibition) compared to the control group.

A further test has as its system Raw264.7 cells. In words: KARS1-induced trans-migration assay. In kind it is cell-based, mouse. The conditions noted are these: for inhibition at 1 µM: 1 µM compound, read-out: KARS1-induced Raw264.7 cell migration (% inhibition, 1uM). As to the method:
C0001 inhibits the binding of KARS1 and 67LR, thereby blocking the migration of monocytes/macrophages and suppressing inflammation. Accordingly, a trans-migration assay using mouse macrophages (Raw264.7) was conducted to preliminarily screen drugs that inhibit the migration of monocytes/macrophages.
Based on this, when KARS1 protein was directly treated externally instead of LN, the trans-migration of Raw264.7 was induced, and the cell migration inhibitory effect of the KARS1 inhibitor C0001 was confirmed. It was verified that C0001, which specifically binds to KARS1, can inhibit cell migration by binding to extracellular KARS1, in addition to the mechanism of inhibiting cell membrane migration of KARS1 induced by laminin and its binding to 67LR, thereby enabling this analysis to be used as a direct method for evaluating in vitro activity against KARS1.
Next, preliminary candidate substances with high inhibitory activity at 1 µM were treated at concentrations of 0.1~4 µM for analysis.

The next test has as its target T1, KARS1 and 37LR (Homo sapiens, UniProt Q15046).
T1 construct: KARS1 (1-207aa)
The experiment in a line: Cell-free ELISA of KARS1 and 37LR (laminin receptor) binding. The settings on record: 10 µM compound, 1 hour, plate coated with KARS1 (1-207aa), LRF. As to the method: Next, based on the mechanism of action, a cell-free ELISA analysis was conducted to select compounds with high inhibitory activity on the binding of KARS1 and LR (laminin receptor).

T1 sequence (Q15046 1-207): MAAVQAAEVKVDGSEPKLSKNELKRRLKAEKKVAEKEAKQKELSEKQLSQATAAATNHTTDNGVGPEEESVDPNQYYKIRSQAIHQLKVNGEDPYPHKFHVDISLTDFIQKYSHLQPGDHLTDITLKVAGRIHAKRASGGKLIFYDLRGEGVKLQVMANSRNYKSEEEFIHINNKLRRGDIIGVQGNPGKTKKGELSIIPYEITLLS

`COc1ccc(CCN(Cc2ccc(C3(C(=O)O)CCC3)cc2)c2nc3cccc(F)c3s2)cc1` [Compound 36, 1-(4-(((7-fluorobenzo[d]thiazol-2-yl)(4-methoxyphenethyl)amino)-methyl)phenyl)cyclobutane-1-carboxylic acid]: the inhibition at 3 µM with Raw 264.7 cells came to 21.8%. Also, in the test on Raw264.7 cells (Mus musculus, RAW264.7), the inhibition at 1 µM amounted to 96.8%.

Turning to `COc1ccc(CCN(Cc2ccc(C#CC(=O)O)cc2)c2ncc3ccn(C)c3n2)cc1` [Compound 12, 3-(4-(((4-methoxyphenethyl)(7-methyl-7H-pyrrolo[2,3-d]pyrimidin-2-yl)amino)methyl)phenyl)propiolic acid], the inhibition at 3 µM with Raw 264.7 cells stood at 43%. This compound also registered an inhibition at 10 µM on KARS1 and 37LR of 57.9%. Besides, in the test on Raw264.7 cells (Mus musculus, RAW264.7), the inhibition at 1 µM turned out to be 55.1%.

Consider `COc1ccc(CCN(Cc2ccc(N3CCC(C(=O)O)CC3)cc2)c2nc3cccc(F)c3s2)cc1` [Compound 46, 1-(4-(((7-fluorobenzo[d]thiazol-2-yl)(4-methoxyphenethyl)amino)-methyl)phenyl)piperidine-4-carboxylic acid], for which the inhibition at 1 µM with Raw264.7 cells (Mus musculus, RAW264.7) turned out to be 90.9%.

Consider `COc1ccc(CCN(Cc2ccc(-c3ccc(C(=O)O)o3)cc2)c2nc3cccc(F)c3s2)cc1` [Compound 26, 5-(4-(((7-fluorobenzo[d]thiazol-2-yl)(4-methoxyphenethyl)amino)-methyl)phenyl)furan-2-carboxylic acid], for which the inhibition at 3 µM in the test with Raw 264.7 cells came out at 48%. In addition, on KARS1 and 37LR, the inhibition at 10 µM was determined as 78.4%. Further, the inhibition at 1 µM in the test with Raw264.7 cells (Mus musculus, RAW264.7) was found to be 80.6%.

As for `COc1ccc(CCN(Cc2ccc(C#CC(N)=O)cc2)c2nc3cccc(F)c3s2)cc1` [Compound 5, 3-(4-(((7-fluorobenzo[d]thiazol-2-yl)(4-methoxyphenethyl)amino)-methyl)phenyl)propiolamide], the inhibition at 3 µM with Raw 264.7 cells was determined as 77.7%. In addition, on KARS1 and 37LR, the inhibition at 10 µM is 0.8%. The inhibition at 1 µM in the test on Raw264.7 cells (Mus musculus, RAW264.7) was 95.6%.

`C#Cc1ccc(CN(CCc2ccc(OC)cc2)c2ncc3ccn(C)c3n2)cc1` [Compound 11, N-(4-ethynylbenzyl)-N-(4-methoxyphenethyl)-7-methyl-7H-pyrrolo[2,3-d]pyrimidin-2-amine]: the inhibition at 3 µM in the test on Raw 264.7 cells was 12%. This compound came in with an inhibition at 10 µM on KARS1 and 37LR of 3%. Further, in the test with Raw264.7 cells (Mus musculus, RAW264.7), the inhibition at 1 µM was 37.8%.

As for `C#Cc1cccc(CN(CCc2ccc(OC)cc2)c2nc3cccc(F)c3s2)c1` [Compound 9, N-(3-ethynylbenzyl)-7-fluoro-N-(4-methoxyphenethyl)benzo[d]thiazol-2-amine], the inhibition at 3 µM in the test with Raw 264.7 cells stood at 0%. The compound further registered an inhibition at 10 µM at KARS1 and 37LR of 8.5%.

`COc1ccc(CCN(Cc2ccc(C#C[Si](C)(C)C)cc2)c2ncc3ccn(C)c3n2)cc1` [Compound 10, N-(4-methoxyphenethyl)-7-methyl-N-(4-((trimethylsilyl)ethynyl)-benzyl)-7H-pyrrolo[2,3-d]pyrimidin-2-amine]: the inhibition at 3 µM in the test on Raw 264.7 cells worked out at 0%. At KARS1 and 37LR, this compound gave an inhibition at 10 µM of 9.8%. Further, the inhibition at 1 µM in the test with Raw264.7 cells (Mus musculus, RAW264.7) worked out at 11.7%.

`COc1ccc(CCN(Cc2ccc(C(=O)N[C@@H](C(=O)O)C(C)C)cc2)c2nc3cccc(F)c3s2)cc1` [Compound 18, (4-(((7-fluorobenzo[d]thiazol-2-yl)(4-methoxyphenethyl)amino)-methyl)benzoyl)-D-valine]: the inhibition at 3 µM in the test on Raw 264.7 cells came out at 9%. The compound further gave an inhibition at 10 µM on KARS1 and 37LR of 86.2%. The inhibition at 1 µM with Raw264.7 cells (Mus musculus, RAW264.7) was 31%.

`COc1ccc(CCN(Cc2cccc(C#C[Si](C)(C)C)c2)c2nc3cccc(F)c3s2)cc1` [Compound 8, 7-fluoro-N-(4-methoxyphenethyl)-N-(3-((trimethylsilyl)ethynyl)-benzyl)benzo[d]thiazol-2-amine]: the inhibition at 3 µM with Raw 264.7 cells was found to be 27%. Besides, at KARS1 and 37LR, the inhibition at 10 µM was 13.4%.

For the compound `COc1ccc(CCN(Cc2ccc(Br)cc2)c2ncc3ccn(C)c3n2)cc1` [Compound 7, N-(4-bromobenzyl)-N-(4-methoxyphenethyl)-7-methyl-7H-pyrrolo[2,3-d]pyrimidin-2-amine], in the test on Raw 264.7 cells, the inhibition at 3 µM came out at 10.9%. On KARS1 and 37LR, this compound returned an inhibition at 10 µM of 9.5%. Also, in the test on Raw264.7 cells (Mus musculus, RAW264.7), the inhibition at 1 µM was 39.1%.

`COc1ccc(CCN(Cc2cccc(N3CC[C@@H](C(=O)O)C3)c2)c2nc3cccc(F)c3s2)cc1` [Compound 23, (R)-1-(3-(((7-fluorobenzo[d]thiazol-2-yl)(4-methoxyphenethyl)amino)-methyl)phenyl)pyrrolidine-3-carboxylic acid]: the inhibition at 3 µM in the test with Raw 264.7 cells was 59%. On KARS1 and 37LR, this compound registered an inhibition at 10 µM of 71.6%. In the test with Raw264.7 cells (Mus musculus, RAW264.7), the inhibition at 1 µM worked out at 35.4%.

Turning to `COc1ccc(CCN(Cc2ccc(C#CC(=O)O)cc2)c2nc3ccc(=O)[nH]c3s2)cc1` [Compound 45, 3-(4-(((4-methoxyphenethyl)(5-oxo-4,5-dihydrothiazolo[5,4-b]pyridin-2-yl)amino)methyl)phenyl)propiolic acid], the inhibition at 3 µM with Raw 264.7 cells stood at 7.8%. For the same compound, the inhibition at 1 µM in the test with Raw264.7 cells (Mus musculus, RAW264.7) was 39.8%.

For `O=C(O)[C@H]1CCN(c2ccc(CN(CCn3ccccc3=O)c3nc4cccc(F)c4s3)cc2)C1` [Compound 49, (S)-1-(4-(((7-fluorobenzo[d]thiazol-2-yl)(2-(2-oxopyridin-1(2H)-yl)ethyl)amino)methyl)phenyl)pyrrolidine-3-carboxylic acid], in the test on Raw264.7 cells (Mus musculus, RAW264.7), the inhibition at 1 µM was 34.8%.

With `COc1ccc(CCN(Cc2ccc(-n3ccc(C(=O)O)c3)cc2)c2nc3cccc(F)c3s2)cc1` [Compound 34, 1-(4-(((7-fluorobenzo[d]thiazol-2-yl)(4-methoxyphenethyl)amino)-methyl)phenyl)-1H-pyrrole-3-carboxylic acid], in the test with Raw 264.7 cells, the inhibition at 3 µM is 13%. Moreover, in the test with Raw264.7 cells (Mus musculus, RAW264.7), the inhibition at 1 µM was 99.4%.

Turning to `COc1ccc(CCN(Cc2ccc3c(c2)CNC3)c2nc3cccc(F)c3s2)cc1` [Compound 29, 7-fluoro-N-(isoindolin-5-ylmethyl)-N-(4-methoxyphenethyl)benzo-[d]thiazol-2-amine], the inhibition at 3 µM in the test on Raw 264.7 cells stood at 33%. In the test on Raw264.7 cells (Mus musculus, RAW264.7), the inhibition at 1 µM is 4.1%.

`COc1ccc(CCN(Cc2ccc3c(c2)CN(S(N)(=O)=O)C3)c2nc3cccc(F)c3s2)cc1` [Compound 31, 5-(((7-fluorobenzo[d]thiazol-2-yl)(4-methoxyphenethyl)amino)-methyl)isoindoline-2-sulfonamide]: the inhibition at 3 µM in the test on Raw 264.7 cells was found to be 72.8%. Moreover, the inhibition at 1 µM in the test on Raw264.7 cells (Mus musculus, RAW264.7) turned out to be 28.3%.

Turning to `COc1ccc(CCN(Cc2ccc(N3CC[C@H](C(=O)O)C3)cc2)c2nc3ccccc3o2)cc1` [Compound 38, (S)-1-(4-((benzo[d]oxazol-2-yl(4-methoxyphenethyl)amino)methyl)-phenyl)pyrrolidine-3-carboxylic acid], the inhibition at 3 µM in the test with Raw 264.7 cells came out at 15.3%. The inhibition at 1 µM in the test with Raw264.7 cells (Mus musculus, RAW264.7) was 40.4%.

With `COc1ccc(CCN(Cc2ccc(C#CC(=O)O)cc2)c2nc3cccnc3o2)cc1` [Compound 44, 3-(4-(((4-methoxyphenethyl)(oxazolo[5,4-b]pyridin-2-yl)amino)-methyl)phenyl)propiolic acid], the inhibition at 3 µM in the test on Raw 264.7 cells was determined as 1.1%.

In the case of `COc1ccc(CCN(Cc2ccc(-n3cc(C(=O)O)cn3)cc2)c2nc3cccc(F)c3s2)cc1` [Compound 47, 1-(4-(((7-fluorobenzo[d]thiazol-2-yl)(4-methoxyphenethyl)amino)-methyl)phenyl)-1H-pyrazole-4-carboxylic acid], in the test on Raw264.7 cells (EC50, KARS1-induced cell migration), the “times higher activity compared to C0001” value is “approximately 10 times”. Moreover, the inhibition at 1 µM in the test on Raw264.7 cells (Mus musculus, RAW264.7) was found to be 99.7%. Moreover, the EC50 with Raw264.7 cells (Mus musculus, RAW264.7, KARS1-induced cell migration, 0.1~4 µM) worked out at 80 nM.

Turning to `NC(=O)c1ccc(CCN(Cc2ccc(N3CC[C@H](C(=O)O)C3)cc2)c2nc3cccc(F)c3s2)cc1` [Compound 48, (S)-1-(4-(((4-carbamoylphenethyl)(7-fluorobenzo[d]thiazol-2-yl)amino)methyl)phenyl)pyrrolidine-3-carboxylic acid], in the test on Raw264.7 cells (Mus musculus, RAW264.7), the inhibition at 1 µM stood at 36.6%.

With `COc1ccc(CCN(Cc2nc3cc(C(=O)O)ccc3o2)c2nc3cccc(F)c3s2)cc1` [Compound 28, 2-(((7-fluorobenzo[d]thiazol-2-yl)(4-methoxyphenethyl)amino)-methyl)benzo[d]oxazole-5-carboxylic acid], the inhibition at 3 µM with Raw 264.7 cells turned out to be 16.4%. In the test with Raw264.7 cells (Mus musculus, RAW264.7), the inhibition at 1 µM is 43.2%.

As for `COc1ccc(CCN(Cc2ccc(N3CC[C@@H](C(=O)O)C3)cc2)c2nc3ccccc3o2)cc1` [Compound 37, (R)-1-(4-((benzo[d]oxazol-2-yl(4-methoxyphenethyl)amino)methyl)-phenyl)pyrrolidine-3-carboxylic acid], in the test with Raw 264.7 cells, the inhibition at 3 µM was determined as 19.3%. Moreover, in the test on Raw264.7 cells (Mus musculus, RAW264.7), the inhibition at 1 µM is 50.6%.

(Values after EP4656630A1, “NOVEL COMPOUND AS LYSYL-TRNA SYNTHETASE 1 INHIBITOR, AND USE THEREOF” (Zymedi Co., Ltd., priority 2023, dated 2024).)
